According to article PMC4467469 (Methods in molecular biology (Clifton, N.J.), 2012):

Biological target: Cdc42 (Homo sapiens, UniProt P60953)
Assay: equilibrium binding by flow cytometry on beads

Sequence of Cdc42 (P60953 1-188): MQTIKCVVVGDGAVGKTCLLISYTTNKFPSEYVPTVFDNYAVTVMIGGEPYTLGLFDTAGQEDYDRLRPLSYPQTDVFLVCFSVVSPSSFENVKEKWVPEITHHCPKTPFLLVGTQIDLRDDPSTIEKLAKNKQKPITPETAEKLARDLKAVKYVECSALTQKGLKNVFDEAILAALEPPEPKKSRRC

With `Cc1cc(C)n2c1C=C1C=CC(CCC(=O)NCCNC(=O)OC3C(COP(=O)(O)OP(=O)(O)OP(=O)(O)O)OC(n4cnc5c(=O)[nH]c(N)nc54)C3O)=[N+]1[B-]2(F)F` (stereo not shown) [BODIPY-FL-GTP] the Kd was 0.6 nM.
